Data published in patent US6608086B2, “Dihydropyridines and new uses thereof” (Synaptic Pharmaceutical Corporation, priority 1993, dated 2003).
Like-named read-outs stand apart in the source and are kept apart here.

Experiments:
L-type calcium channel = biological target: T1, L-type calcium channel (Rattus norvegicus, UniProt P22002); experiment: Competition binding of [3H]nitrendipine to membrane fragments of rat cardiac muscle
T1 construct: membrane fragments of rat cardiac muscle; from tissue; host or cells: rat cardiac muscle membranes
Protocol: The protocols for these experiments are given below.
Determination of the Activity of al Antagonists at Calcium Channels
Briefly, the tissue was minced and homogenized in 50 mM Tris-HCl (pH 7.4) containing 0.1 mM phenylmethylsulfonyl fluoride. The homogenates were centrifuged at 1000 g for 15 minutes, the resulting supernatant was centrifuged at 45,000 g for 15 minutes. The 45,000 g pellet was suspended in buffer and centrifuged a second time. Aliquots of membrane protein were incubated for 30 minutes at 37° C. in the presence of [3H]nitrendipine (1 nM), and nonspecific binding was determined in the presence of 10 μM nifedipine. The bound radioligand was separated by filtration through GF/B filters using a cell harvester.

[1] = biological target: T2, α1A Human Adrenergic Receptor (Homo sapiens, UniProt P25100); experiment: Radioligand binding, [3H]prazosin, cloned human α1A adrenergic receptor
T2 construct: The entire coding region of α1A (1719 bp); expressed in transfected cells
T2 sequence (P25100 1-572): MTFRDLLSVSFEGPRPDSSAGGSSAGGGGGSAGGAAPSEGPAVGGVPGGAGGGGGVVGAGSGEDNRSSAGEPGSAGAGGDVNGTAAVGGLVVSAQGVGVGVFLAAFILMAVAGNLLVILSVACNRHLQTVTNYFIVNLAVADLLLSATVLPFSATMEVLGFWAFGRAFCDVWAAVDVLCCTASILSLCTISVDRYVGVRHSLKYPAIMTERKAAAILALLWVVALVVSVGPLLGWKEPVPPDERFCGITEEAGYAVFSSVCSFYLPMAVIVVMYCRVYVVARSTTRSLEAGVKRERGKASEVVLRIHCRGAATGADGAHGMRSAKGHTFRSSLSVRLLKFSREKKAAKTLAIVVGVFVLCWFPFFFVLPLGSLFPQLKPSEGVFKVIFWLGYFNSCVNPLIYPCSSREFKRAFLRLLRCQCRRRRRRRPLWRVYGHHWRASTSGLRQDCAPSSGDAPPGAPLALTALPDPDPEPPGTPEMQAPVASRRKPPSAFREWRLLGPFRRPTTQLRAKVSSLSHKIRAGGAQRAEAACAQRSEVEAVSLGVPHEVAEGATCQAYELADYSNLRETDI
Procedure, shortened: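 In pH 7.5 Tris/MgCl2/ascorbic acid buffer, α1A-expressing LM(tk−) membranes are exposed to 0.5 nM [3H]prazosin (37° C, 20 min). Excess phentolamine (10 μM) marks nonspecific binding before rapid filtration.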

[2] = biological target: T3, α1C Human Adrenergic Receptor (Homo sapiens, UniProt P35348); experiment: Radioligand binding, [3H]prazosin, cloned human α1C adrenergic receptor; conditions: cloned human receptor, LM(tk-) cell membranes, mean
T3 construct: The entire coding region of α1C (1401 bp); expressed in transfected cells
T3 sequence (P35348 1-466): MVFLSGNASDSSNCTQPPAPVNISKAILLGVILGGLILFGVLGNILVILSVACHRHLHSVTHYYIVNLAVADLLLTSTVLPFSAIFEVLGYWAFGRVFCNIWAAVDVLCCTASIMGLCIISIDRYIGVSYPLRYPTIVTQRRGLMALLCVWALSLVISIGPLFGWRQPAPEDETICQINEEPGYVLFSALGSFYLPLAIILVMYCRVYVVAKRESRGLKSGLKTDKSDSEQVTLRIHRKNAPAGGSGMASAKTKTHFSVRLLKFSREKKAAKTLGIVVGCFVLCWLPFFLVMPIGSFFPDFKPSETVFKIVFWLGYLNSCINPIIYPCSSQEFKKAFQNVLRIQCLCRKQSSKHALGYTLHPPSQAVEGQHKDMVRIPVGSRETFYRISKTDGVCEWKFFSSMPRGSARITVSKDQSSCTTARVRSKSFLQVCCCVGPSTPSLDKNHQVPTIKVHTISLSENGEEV
Procedure, shortened: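 Antagonist radioligand [3H]prazosin at 0.5 nM labels human α1C receptors in stably transfected LM(tk−) cell membranes over 20 min at 37° C. Phentolamine (10 μM) gives nonspecific binding.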

[3] = biological target: T4, α1B Human Adrenergic Receptor (Homo sapiens, UniProt P35368); experiment: Radioligand binding, [3H]prazosin, cloned human α1B adrenergic receptor; conditions: cloned human receptor, LM(tk-) cell membranes, mean
T4 construct: The entire coding region of α1B (1563 bp); expressed in transfected cells
T4 sequence (P35368 1-520): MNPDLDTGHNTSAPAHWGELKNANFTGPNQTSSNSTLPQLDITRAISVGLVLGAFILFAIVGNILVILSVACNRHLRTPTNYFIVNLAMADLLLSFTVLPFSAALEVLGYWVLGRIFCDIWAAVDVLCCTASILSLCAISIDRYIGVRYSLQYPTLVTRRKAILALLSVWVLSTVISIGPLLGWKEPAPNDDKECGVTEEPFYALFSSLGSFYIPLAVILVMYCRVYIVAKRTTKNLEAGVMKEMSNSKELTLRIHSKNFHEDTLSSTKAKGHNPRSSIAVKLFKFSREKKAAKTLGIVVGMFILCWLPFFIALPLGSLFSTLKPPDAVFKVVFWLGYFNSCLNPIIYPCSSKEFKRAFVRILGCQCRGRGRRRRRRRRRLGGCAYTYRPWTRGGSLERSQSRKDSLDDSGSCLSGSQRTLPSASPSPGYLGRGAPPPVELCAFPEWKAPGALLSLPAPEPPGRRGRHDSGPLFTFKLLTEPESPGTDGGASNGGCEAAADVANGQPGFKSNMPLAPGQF
Procedure, shortened: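 [3H]prazosin (0.5 nM) binding was run for 20 min at 37° C in pH 7.5 Tris/MgCl2/ascorbate buffer on membranes of LM(tk−) cells stably expressing the cloned receptor. Filtration through GF/B ended the reaction; 10 μM phentolamine gave nonspecific binding.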

[4] = [3H]nitrendipine, rat cardiac muscle membranes, mean, read-out: PKi Ca (converted)
[5] = PKi alpha-1 1a, [3H]prazosin, cloned human receptor, LM(tk-) cell membranes, mean
[6] = [3H]prazosin, cloned human receptor, LM(tk-) cell membranes, mean, read-out: PKi alpha-1 1a (converted)
[7] = read-out: PKi alpha-1 1c (converted)
[8] = read-out: PKi alpha-1 1b (converted)

T1 sequence (P22002 whole entry, other chains not shown, the tested form may be a part): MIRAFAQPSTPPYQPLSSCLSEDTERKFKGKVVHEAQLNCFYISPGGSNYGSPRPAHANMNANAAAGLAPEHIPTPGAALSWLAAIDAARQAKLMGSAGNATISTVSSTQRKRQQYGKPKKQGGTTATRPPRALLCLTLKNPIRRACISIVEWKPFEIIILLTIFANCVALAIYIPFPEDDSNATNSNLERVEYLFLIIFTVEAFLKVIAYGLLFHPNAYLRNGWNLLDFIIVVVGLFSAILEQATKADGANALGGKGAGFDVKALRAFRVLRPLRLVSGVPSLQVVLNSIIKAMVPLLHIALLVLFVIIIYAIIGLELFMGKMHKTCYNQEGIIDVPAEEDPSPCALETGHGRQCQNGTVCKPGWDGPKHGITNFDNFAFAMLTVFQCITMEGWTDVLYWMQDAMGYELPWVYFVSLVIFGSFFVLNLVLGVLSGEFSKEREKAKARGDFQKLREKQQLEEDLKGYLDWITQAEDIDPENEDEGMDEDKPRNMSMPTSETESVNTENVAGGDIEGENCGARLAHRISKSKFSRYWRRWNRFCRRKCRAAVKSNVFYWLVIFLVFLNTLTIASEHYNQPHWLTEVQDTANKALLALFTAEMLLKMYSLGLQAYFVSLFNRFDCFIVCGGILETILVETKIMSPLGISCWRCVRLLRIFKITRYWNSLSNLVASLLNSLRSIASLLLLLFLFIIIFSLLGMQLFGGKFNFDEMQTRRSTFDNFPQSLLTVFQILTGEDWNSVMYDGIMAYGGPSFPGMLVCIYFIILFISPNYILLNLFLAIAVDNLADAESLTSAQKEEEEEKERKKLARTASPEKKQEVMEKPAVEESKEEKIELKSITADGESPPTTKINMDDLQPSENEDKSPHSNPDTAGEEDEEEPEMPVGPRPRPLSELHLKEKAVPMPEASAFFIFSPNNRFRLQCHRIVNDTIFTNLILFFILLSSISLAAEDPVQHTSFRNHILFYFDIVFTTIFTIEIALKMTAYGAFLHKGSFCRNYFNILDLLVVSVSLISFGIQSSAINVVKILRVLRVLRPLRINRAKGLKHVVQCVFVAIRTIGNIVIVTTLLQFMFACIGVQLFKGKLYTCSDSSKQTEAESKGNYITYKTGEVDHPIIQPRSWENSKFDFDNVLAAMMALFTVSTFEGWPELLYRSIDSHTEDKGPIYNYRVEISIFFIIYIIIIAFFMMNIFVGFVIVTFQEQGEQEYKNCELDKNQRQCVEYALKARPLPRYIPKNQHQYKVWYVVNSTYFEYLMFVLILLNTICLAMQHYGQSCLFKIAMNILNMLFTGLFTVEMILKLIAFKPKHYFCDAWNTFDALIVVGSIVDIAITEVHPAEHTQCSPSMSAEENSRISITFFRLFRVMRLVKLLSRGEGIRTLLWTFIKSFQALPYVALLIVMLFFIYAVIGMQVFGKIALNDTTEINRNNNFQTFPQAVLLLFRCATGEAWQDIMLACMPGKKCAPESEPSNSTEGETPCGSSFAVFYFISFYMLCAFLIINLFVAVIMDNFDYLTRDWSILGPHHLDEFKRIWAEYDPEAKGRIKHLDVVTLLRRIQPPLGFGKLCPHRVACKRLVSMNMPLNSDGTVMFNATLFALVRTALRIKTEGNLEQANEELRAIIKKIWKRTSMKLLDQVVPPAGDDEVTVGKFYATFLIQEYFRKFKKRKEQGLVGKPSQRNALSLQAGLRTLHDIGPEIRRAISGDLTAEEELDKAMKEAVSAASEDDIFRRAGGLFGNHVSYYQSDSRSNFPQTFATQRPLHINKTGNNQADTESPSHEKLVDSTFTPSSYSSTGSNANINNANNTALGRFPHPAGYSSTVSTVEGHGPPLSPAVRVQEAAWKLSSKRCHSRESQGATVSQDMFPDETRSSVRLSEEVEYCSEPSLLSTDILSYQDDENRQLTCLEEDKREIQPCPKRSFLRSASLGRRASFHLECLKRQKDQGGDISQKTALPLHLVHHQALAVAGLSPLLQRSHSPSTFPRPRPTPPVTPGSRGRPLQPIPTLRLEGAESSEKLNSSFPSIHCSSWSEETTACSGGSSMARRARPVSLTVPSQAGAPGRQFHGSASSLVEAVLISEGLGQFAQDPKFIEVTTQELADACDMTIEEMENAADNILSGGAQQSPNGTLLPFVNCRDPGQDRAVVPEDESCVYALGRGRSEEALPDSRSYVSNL
T1 sequence (P54290 25-944 partner limits assumed, other chains not shown): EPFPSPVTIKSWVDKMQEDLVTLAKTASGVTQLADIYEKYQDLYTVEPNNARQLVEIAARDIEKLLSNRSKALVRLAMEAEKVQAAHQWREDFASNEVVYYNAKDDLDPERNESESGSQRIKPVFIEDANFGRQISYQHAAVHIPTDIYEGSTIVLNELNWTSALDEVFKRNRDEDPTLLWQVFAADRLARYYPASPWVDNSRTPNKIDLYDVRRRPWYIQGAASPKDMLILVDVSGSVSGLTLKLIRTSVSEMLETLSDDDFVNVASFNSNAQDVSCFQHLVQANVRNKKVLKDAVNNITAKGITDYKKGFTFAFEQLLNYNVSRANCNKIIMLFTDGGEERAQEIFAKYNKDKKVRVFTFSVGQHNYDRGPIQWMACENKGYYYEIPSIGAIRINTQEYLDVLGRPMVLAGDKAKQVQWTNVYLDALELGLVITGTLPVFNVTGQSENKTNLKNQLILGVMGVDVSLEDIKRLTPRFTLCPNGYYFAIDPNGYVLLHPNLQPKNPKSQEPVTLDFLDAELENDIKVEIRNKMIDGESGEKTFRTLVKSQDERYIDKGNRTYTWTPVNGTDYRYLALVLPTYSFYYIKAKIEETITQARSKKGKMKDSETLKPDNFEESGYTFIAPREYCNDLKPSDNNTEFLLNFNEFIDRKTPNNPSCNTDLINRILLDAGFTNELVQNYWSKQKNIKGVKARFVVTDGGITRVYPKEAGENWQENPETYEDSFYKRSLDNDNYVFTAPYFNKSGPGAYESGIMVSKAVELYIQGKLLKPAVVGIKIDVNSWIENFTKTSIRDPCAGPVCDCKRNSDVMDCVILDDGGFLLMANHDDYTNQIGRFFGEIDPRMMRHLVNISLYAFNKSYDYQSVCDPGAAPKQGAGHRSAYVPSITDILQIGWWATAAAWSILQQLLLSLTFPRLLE
T1 sequence (P54290 945-1091 partner limits assumed, other chains not shown): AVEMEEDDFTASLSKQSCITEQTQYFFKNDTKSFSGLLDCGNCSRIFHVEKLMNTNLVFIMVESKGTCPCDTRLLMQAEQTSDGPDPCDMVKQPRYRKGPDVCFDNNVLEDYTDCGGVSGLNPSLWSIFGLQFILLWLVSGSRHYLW

| SMILES | Ki (L-type calcium channel; [4]) [nM] | Ki [1, 5] [nM] | Ki ([2]; PKi alpha-1 1c) [nM] | melting point | Ki ([3]; PKi alpha-1 1b) [nM] | Ki [1, 6] [nM] | Ki [2, 7] [nM] | Ki [3, 8] [nM] | Ki (L-type calcium channel; PKi Ca) [nM] | Ki ([1]; PKi alpha-1 1a) [nM] |
| --- | --- | --- | --- | --- | --- | --- | --- | --- | --- | --- |
| CCC1=C(C(=O)O)C(c2ccc([N+](=O)[O-])cc2)C(C(=O)NCCCN2CCC(c3ccccc3)(c3ccccc3)CC2)=C(COCCN)N1 (centres unmarked) [Example 219, 2-((2-Aminoethyl)oxy)methyl-6-ethyl-1,4-dihydro-4-(4-nitro)phenyl-3-(N-(3-(4,4-diphenylpiperidin-1-yl)propyl))carboxamidopyridine-5-carboxylic Acid] | 575000 | 2690 | 30.2 | 180 °C (dec.) | 1230 | – | – | – | – | – |
| CCC1=C(C(=O)OCCC#N)C(c2ccc([N+](=O)[O-])cc2)C(C(=O)NCCCN2CCC(C#N)(c3ccccc3)CC2)=C(COC)N1 (centres unmarked) [Example 220, 5-(2-Cyanoethoxy)carbonyl-3-(N-(3-(4-cyano-4-phenylpiperidin-1-yl)propyl))carboxamido-6-ethyl-1,4-dihydro-2-methyloxymethyl-4-(4-nitro)phenylpyridine] | 437000 | 2140 | 9.77 | 58 to 68 °C | 525 | – | – | – | – | – |
| CCC1=C(C(=O)OCCC#N)C(c2ccc([N+](=O)[O-])cc2)C(C(=O)NCCCN2CCC(c3ccccc3)CC2)=C(COC)N1 (centres unmarked) [Example 221, 5-(2-Cyanoethoxy) carbonyl-6-ethyl-1,4-dihydro-2-methyloxymethyl-4-(4-nitro)phenyl-3-(N-(3-(4-phenylpiperidin-1-yl)propyl))carboxamidopyridine] | 14100 | – | – | 55 to 63 °C | – | 186 | 6.17 | 52.5 | – | – |
| CCC1=C(C(=O)O)C(c2ccc([N+](=O)[O-])cc2)C(C(=O)NCCCN2CCC(C#N)(c3ccccc3)CC2)=C(COC)N1 (centres unmarked) [Example 222, 3-(N-(3-(4-Cyano-4-phenylpiperidin-1-yl)propyl))carboxamido-6-ethyl-1,4-dihydro-2-methyloxymethyl-4-(4-nitro) phenylpyridine-5-carboxylic Acid] | 282000 | 14100 | 41.7 | 115 °C (dec.) | 6760 | – | – | – | – | – |
| CCC1=C(C(=O)OCCC#N)C(c2ccc([N+](=O)[O-])cc2)C(C(=O)NCCCN2CCC(C(=O)OC)(c3ccccc3)CC2)=C(COCCN=[N+]=[N-])N1 (centres unmarked) [Example 226, 2-((2-Azidoethyl)oxy) methyl-5-(2-cyanoethoxy) carbonyl-6-ethyl-1,4-dihydro-3-(N-(3-(4-methoxycarbonyl-4-phenylpiperidin-1-yl)propyl))carboxamido-4-(4-nitro)phenylpyridine] | 8710 | – | – | 54 to 60 °C | – | 224 | 11 | 97.7 | – | – |
| CCC1=C(C(=O)O)C(c2ccc([N+](=O)[O-])cc2)C(C(=O)NCCCN2CCC(C(=O)OC)(c3ccccc3)CC2)=C(COCCN=[N+]=[N-])N1 (centres unmarked) [Example 227, 2-((2-Azidoethyl)oxy)methyl-6-ethyl-1,4-dihydro-3-(N-(3-(4-methoxycarbonyl-4-phenylpiperidin-1-yl)propyl))carbo xamido-4-(4-nitro)phenylpyridine-5-carboxylic Acid] | 70800 | – | – | 110 to 120 °C | – | 5130 | 23.4 | 2630 | – | – |
| CCC1=C(C(=O)NC)C(c2ccc([N+](=O)[O-])cc2)C(C(=O)NCCCN2CCC(C(=O)OC)(c3ccccc3)CC2)=C(COCCN=[N+]=[N-])N1 (centres unmarked) [Example 228, 2-((2-Azidoethyl)oxy)methyl-6-ethyl-1,4-dihydro-3-(N-(3-(4-methoxycarbonyl-4-phenylpiperidin-1-yl)propyl))carbo xamido-5-N-methylcarboxamido-4-(4-nitro)phenylpyridine] | 33900 | – | – | 73 to 83 °C | – | 3470 | 16.6 | 1480 | – | – |
| CCNC(=O)C1=C(CC)NC(COCCN=[N+]=[N-])=C(C(=O)NCCCN2CCC(C(=O)OC)(c3ccccc3)CC2)C1c1ccc([N+](=O)[O-])cc1 (centres unmarked) [Example 230, 2-((2-Azidoethyl)oxy)methyl-6-ethyl-5-N-ethylcarboxamido-1,4-dihydro-3-(N-(3-(4-methoxycarbonyl-4-phenylpiperidin-1-yl)propyl))carboxamido-4-(4-nitro)phenylpyridine] | 9120 | – | – | 70 °C (dec.) | – | 1780 | 8.71 | 692 | – | – |
| CCC1=C(C(N)=O)C(c2ccc([N+](=O)[O-])cc2)C(C(=O)NCCCN2CCC(C(=O)OC)(c3ccccc3)CC2)=C(COCCN=[N+]=[N-])N1 (centres unmarked) [Example 231, 2-((2-Azidoethyl)oxy)methyl-5-carboxamido-6-ethyl-1,4-dihydro-3-(N-(3-(4-methoxycarbonyl-4-phenylpiperidin-1-yl)propyl))carboxamido-4-(4-nitro)phenylpyridine] | 389000 | – | – | 70 to 75 °C | – | 1230 | 4.37 | 501 | – | – |
| CCC1=C(C(=O)OC)C(c2ccc([N+](=O)[O-])cc2)C(C(=O)NCCCN2CCC(C(=O)OC)(c3ccccc3)CC2)=C(COCCN=[N+]=[N-])N1 (centres unmarked) [Example 232, 2-((2-Azidoethyl)oxy)methyl-6-ethyl-5-methoxycarbonyl-3-(N-(3 (4-methoxycarbonyl-4-phenylpiperidin-1-yl)propyl))carbo xamido-1,4-dihydro-4-(4-nitro)phenylpyridine] | – | – | – | 50 to 60 °C | – | – | 7.59 | 219 | 692 | 417 |
